The source of these data is BindingDB's records for patent US20240352046 (1Cbio, 2024).

pIC50: −log10 of the molar value.

The test concerns the target T1, Ectonucleotide pyrophosphatase/phosphodiesterase family member 1 (Homo sapiens, UniProt P22413).
T1 sequence (P22413 whole entry): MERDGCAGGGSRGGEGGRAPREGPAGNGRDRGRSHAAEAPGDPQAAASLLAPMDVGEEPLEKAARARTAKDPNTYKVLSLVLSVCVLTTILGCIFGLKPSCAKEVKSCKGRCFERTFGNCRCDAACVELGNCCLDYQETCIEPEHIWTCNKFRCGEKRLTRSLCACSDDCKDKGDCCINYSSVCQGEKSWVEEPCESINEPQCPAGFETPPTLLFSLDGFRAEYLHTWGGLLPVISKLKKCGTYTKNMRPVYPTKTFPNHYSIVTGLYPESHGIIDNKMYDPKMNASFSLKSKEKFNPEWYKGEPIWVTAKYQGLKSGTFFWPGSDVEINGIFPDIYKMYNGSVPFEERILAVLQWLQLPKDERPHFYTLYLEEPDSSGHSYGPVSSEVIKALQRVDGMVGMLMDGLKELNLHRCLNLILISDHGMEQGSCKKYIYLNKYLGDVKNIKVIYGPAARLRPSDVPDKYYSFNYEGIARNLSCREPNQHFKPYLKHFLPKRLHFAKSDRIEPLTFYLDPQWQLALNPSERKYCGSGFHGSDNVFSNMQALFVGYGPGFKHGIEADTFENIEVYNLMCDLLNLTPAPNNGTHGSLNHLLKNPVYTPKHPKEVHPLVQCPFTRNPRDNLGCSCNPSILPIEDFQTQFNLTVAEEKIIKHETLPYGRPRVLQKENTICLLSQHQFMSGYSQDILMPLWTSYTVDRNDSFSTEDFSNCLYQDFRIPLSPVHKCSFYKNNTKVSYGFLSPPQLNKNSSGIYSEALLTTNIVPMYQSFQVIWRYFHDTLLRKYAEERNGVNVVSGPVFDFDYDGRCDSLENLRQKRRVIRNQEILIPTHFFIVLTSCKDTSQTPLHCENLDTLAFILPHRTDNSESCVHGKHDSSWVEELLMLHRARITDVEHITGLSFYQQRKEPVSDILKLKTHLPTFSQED
Briefly: ENPP1 Inhibition Assay. The procedure:
Dose response curve for the compounds were prepared in duplicates with starting conc. at 5 μM and a three-fold titration was performed. The reaction buffer consisted of 50 mM Tris (pH 8.0), 0.5 mM CaCl2), 1 μM ZnCl2, 250 mM NaCl and 0.1 mg/ml BSA. […] The reaction was then stopped by heating at 90° C. for 3 minutes. […] Following 60 min incubation, 20 μL of detection mixture was added to the enzyme reaction bringing the final volume to 40 μL. The reaction was further incubated for 60 min at RT after which the plates were read using BioTek Plate reader.

`COc1ccc2c(N3CC(CCN(C)S(N)(=O)=O)C3)ncnc2c1` [US20240352046, Compound 1.40] gave a pIC50 of 6.10.

As for `COc1ccc2c(N3CC(CCNS(N)(=O)=O)C3)nc(C3CC3)nc2c1` [US20240352046, Compound 1.42], the pIC50 is < 5.52.

The compound `COc1cc2nc(C(F)F)nc(N3CC(CCNS(N)(=O)=O)C3)c2cc1OC` [US20240352046, Compound 1.43] gave a pIC50 of 6.05.

`COc1cc2ncnc(N3CC(CCN(C)S(N)(=O)=O)C3)c2cc1OC` [US20240352046, Compound 1.47] had a pIC50 of 6.07.
